Literature values, collected in patent US9161929B2, “Solvent cast film sustained release latanoprost implant” (ALLERGAN, INC., priority 2011, dated 2015).

CC(C)OC(=O)CCC/C=C\C[C@@H]1[C@@H](CC[C@@H](O)CCc2ccccc2)[C@H](O)C[C@@H]1O [Latanoprost]
solubility in acetone, ethanol, ethyl acetate, isopropanol, methanol and octanol: freely soluble
